Starred links: 1 amine or outer side, 2 acyl side, 3 side chain; linkers in the order of their positions; H or OH if unused. Positions of bridges follow the written chain, without caps; N, C: chain ends. Non-standard residues stand in square brackets, D forms with d. Residues, ends and D or L forms follow the SMILES beside them. Groups on a side chain read outwards from the residue. *: point of attachment. Phe(3-CH2NH2) = O=C([C@H](Cc1cccc(CN[*:3])c1)N[*:1])[*:2]; Trp(5-F) = N[C@@H](Cc1c[nH]c2ccc(F)cc12)C(=O)O; Phe(4-CH2NH2) = NCc1ccc(C[C@H](N)C(=O)O)cc1; X3 = O=C(CCSCc1cc(F)cc(CSCCN[*:1])c1)[*:2]; Heptanedioyl = O=C(CCCCCC(=O)[*:2])[*:1]; γGlu = O=C(O)[C@H](CCC(=O)[*:2])N[*:1]; mXylylene = c1cc(C[*:1])cc(C[*:2])c1; Adipoyl = O=C(CCCCC(=O)[*:2])[*:1]; Glutaryl = O=C(CCCC(=O)[*:2])[*:1]; Palmitoyl = CCCCCCCCCCCCCCCC(=O)*; αMeP = C[C@@]1(C(=O)O)CCCN1; Dap = NC[C@H](N)C(=O)O; AEEA = NCCOCCOCC(=O)O; AEA = NCCOCC(=O)O; Mpa = O=C(O)CCS
Assays:
PCSK9 [1] = target: T1, PCSK9 (Homo sapiens (Human), UniProt Q8NBP7); assay: PCSK9 Alexa FRET Plus assay (displacement of AlexaFluor647 tagged cyclic peptide Reagent B); type: binding; conditions: Alexa FRET Plus, 0.5 nM PCSK9, 960 nM AF cyclic peptide Reagent B; read-out: IC50
Experimental: A solution containing 1 nM biotinylated PCSK9+2.5 nM Lance Streptavidin Europium (Strep-Eu) was made in 50 mM HEPES pH 7.4, 0.15 M NaCl, 5 mM CaCl2), 0.01% BSA, and 0.01% Surfactant P20. A separate solution containing 1920 nM of the AlexaFluor tagged cyclic peptide was made in the same buffer system. An Echo was used to transfer 0.075 ul of compound plus 0.675 ul of DMSO to each well of an assay plate followed by the addition of 15 ul of PCSK9+Stept-Eu and 15 ul of AF peptide. The final assay volume was 30.750 ul containing 0.5 nM PCSK9, 1.25 nM Strep-Eu, and 960 nM AF cyclic peptide. The reaction was incubated at room temperature for at least two hours prior to fluorescence measurements using an Envision Multilabel Reader. IC50 values were determined by fitting data to a sigmoidal dose-response curve using nonlinear regression. Ki was then calculated from the IC50 and the KD of AF cyclic peptide. Counts (B-counts) of the europium-labeled PCSK9 were followed to observe if compounds were adversely affecting PCSK9. A fall off of the B-counts likely indicated a false positive of inhibition. Data from this procedure was reported as “P=‘numerical value’ (nanomolar)”

PCSK9 [2] = target: T1, PCSK9; assay: PCSK9 Alexa FRET Standard assay (displacement of AlexaFluor647 tagged cyclic peptide Reagent A); type: binding; conditions: PCSK9 Alexa FRET Standard assay, 0.5 nM PCSK9, 20 nM AF cyclic peptide Reagent A; read-out: IC50
Summary of the method: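 TR-FRET displacement: 0.5 nM biotinylated PCSK9 with 1.25 nM Strep-Eu and 20 nM AlexaFluor-tagged cyclic peptide (final) in 50 mM HEPES pH 7.4, 0.15 M NaCl, 5 mM CaCl2, 0.01% BSA, 0.01% P20, ≥2 h at room temperature. IC50 from sigmoidal fit, converted to Ki via peptide KD; falling Eu counts flagged false positives.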

T1 sequence (Q8NBP7 153-692): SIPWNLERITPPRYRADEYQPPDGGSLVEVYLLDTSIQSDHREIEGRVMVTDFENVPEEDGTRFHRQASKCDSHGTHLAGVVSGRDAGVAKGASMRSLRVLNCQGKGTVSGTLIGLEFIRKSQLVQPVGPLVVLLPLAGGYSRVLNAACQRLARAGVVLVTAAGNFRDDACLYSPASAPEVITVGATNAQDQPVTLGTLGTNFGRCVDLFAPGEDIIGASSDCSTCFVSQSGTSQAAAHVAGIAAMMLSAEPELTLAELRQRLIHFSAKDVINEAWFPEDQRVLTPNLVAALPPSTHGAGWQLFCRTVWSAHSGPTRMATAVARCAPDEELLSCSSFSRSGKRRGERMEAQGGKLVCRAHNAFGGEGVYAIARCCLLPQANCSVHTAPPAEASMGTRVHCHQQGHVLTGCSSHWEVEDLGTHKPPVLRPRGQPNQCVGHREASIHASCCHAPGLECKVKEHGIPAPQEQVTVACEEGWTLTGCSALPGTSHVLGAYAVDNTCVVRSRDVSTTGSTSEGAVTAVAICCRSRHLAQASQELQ

SMILES	IC50 (PCSK9 [1]) [nM]	IC50 (PCSK9 [2]) [nM]
C[C@@]12CCCN1C(=O)[C@H](Cc1ccc(O)cc1)NC(=O)N[C@@H]1CCCc3ccc(cc31)C(=O)[C@H](Cc1c[nH]c3ccc(F)cc13)NC(=O)[C@H](Cc1c[nH]c3ccc(F)cc13)NC(=O)CNC(=O)[C@H](CCCCN)NC(=O)CCSCc1cccc(c1)CSC[C@@H](C(N)=O)NC2=O [Compound 140]	100 to 500	0.11 to 100
COc1ccc(C[C@@H]2NC(=O)[C@H]([C@@H](C)O)NC(=O)[C@@H]3C[C@H](F)CN3C(=O)[C@H](Cc3c[nH]c4ccc(F)cc34)NC(=O)[C@H](Cc3c[nH]c4ccc(F)cc34)NC(=O)[C@@H](C)NC(=O)[C@H](CCCCN)NC(=O)[C@@H](NC(C)=O)CCCCCc3ccc(cc3)C[C@@H](C(N)=O)NC(=O)[C@]3(C)CCCN3C2=O)cc1 [Compound 141]	500 to 5000	100 to 1000
COc1ccc(C[C@@H]2NC(=O)[C@H](Cc3cnc[nH]3)NC(=O)[C@H](CC(=O)O)NC(=O)[C@H](Cc3c[nH]c4ccc(F)cc34)NC(=O)[C@H](Cc3c[nH]c4ccc(F)cc34)NC(=O)[C@@H](C)NC(=O)CCc3cn(nn3)-c3ccc(cc3)C[C@@H](C(N)=O)NC(=O)[C@]3(C)CCCN3C2=O)cc1 [Compound 416]	0.1 to 100	0.11 to 100
COc1ccc(C[C@@H]2NC(=O)[C@H](Cc3cnc[nH]3)NC(=O)[C@H](CC(=O)O)NC(=O)[C@H](Cc3c[nH]c4ccc(F)cc34)NC(=O)[C@H](Cc3c[nH]c4ccc(F)cc34)NC(=O)[C@@H](C)NC(=O)CCCC(=O)NCc3ccc(cc3)C[C@@H](C(N)=O)NC(=O)[C@]3(C)CCCN3C2=O)cc1 [Compound 417] ([dA][Trp(5-F)][Trp(5-F)]DHY(Me)[αMeP][Phe(4-CH2NH2)]-NH2; linker N-8 via Glutaryl)	100 to 500	0.11 to 100
COc1ccc(C[C@@H]2NC(=O)[C@H](Cc3cnc[nH]3)NC(=O)[C@H](CC(=O)O)NC(=O)[C@H](Cc3c[nH]c4ccc(F)cc34)NC(=O)[C@H](Cc3c[nH]c4ccc(F)cc34)NC(=O)[C@@H](C)NC(=O)CCCCC(=O)NCc3ccc(cc3)C[C@@H](C(N)=O)NC(=O)[C@]3(C)CCCN3C2=O)cc1 [Compound 419] ([dA][Trp(5-F)][Trp(5-F)]DHY(Me)[αMeP][Phe(4-CH2NH2)]-NH2; linker N-8 via Adipoyl)	500 to 5000	100 to 1000
CC(=O)N[C@@H]1CCC/C=C/CO[C@H]2C[C@@H](C(N)=O)N(C2)C(=O)[C@H](Cc2ccc(O)cc2)NC(=O)[C@H](Cc2cnc[nH]2)NC(=O)[C@H](CC(=O)O)NC(=O)[C@H](Cc2c[nH]c3ccc(F)cc23)NC(=O)[C@H](Cc2c[nH]c3ccc(F)cc23)NC(=O)CNC1=O [Compound 420]	100 to 500	100 to 1000
CC(=O)N[C@@H]1CCCC/C=C\CO[C@H]2C[C@@H](C(N)=O)N(C2)C(=O)[C@H](Cc2ccc(O)cc2)NC(=O)[C@H](Cc2cnc[nH]2)NC(=O)[C@H](CC(=O)O)NC(=O)[C@H](Cc2c[nH]c3ccc(F)cc23)NC(=O)[C@H](Cc2c[nH]c3ccc(F)cc23)NC(=O)CNC1=O [Compound 422]	100 to 500	0.11 to 100
COc1ccc(C[C@@H]2NC(=O)[C@H](Cc3cnc[nH]3)NC(=O)[C@H](CC(=O)O)NC(=O)[C@H](Cc3c[nH]c4ccc(F)cc34)NC(=O)[C@H](Cc3c[nH]c4ccc(F)cc34)NC(=O)[C@@H](C)NC(=O)[C@H](CNC(=O)COCCN)NC(=O)CCSCc3cc(F)cc(c3)CSCCNC(=O)[C@]3(C)CCCN3C2=O)cc1 [Compound 423] (cyclo(DHY(Me)[αMeP][X3][Dap](AEA)[dA][Trp(5-F)][Trp(5-F)]))	0.1 to 100	0.11 to 100
NC(=O)[C@@H]1Cc2ccc(cc2)CNC(=O)CCCC(=O)NCC(=O)N[C@@H](Cc2c[nH]c3ccc(F)cc23)C(=O)N[C@@H](Cc2c[nH]c3ccc(F)cc23)C(=O)N[C@@H](CC(=O)O)C(=O)N[C@@H](Cc2cnc[nH]2)C(=O)N[C@@H](Cc2ccc(O)cc2)C(=O)N1 [Compound 437] (G[Trp(5-F)][Trp(5-F)]DHY[Phe(4-CH2NH2)]-NH2; linker N-7 via Glutaryl)	100 to 500	0.11 to 100
COc1ccc(C[C@@H]2NC(=O)[C@H](Cc3cnc[nH]3)NC(=O)[C@H](CC(=O)O)NC(=O)[C@H](Cc3c[nH]c4ccc(F)cc34)NC(=O)[C@H](Cc3c[nH]c4ccc(F)cc34)NC(=O)[C@@H](C)NC(=O)CCCCCC(=O)NCc3ccc(cc3)C[C@@H](C(N)=O)NC(=O)[C@]3(C)CCCN3C2=O)cc1 [Compound 440] ([dA][Trp(5-F)][Trp(5-F)]DHY(Me)[αMeP][Phe(4-CH2NH2)]-NH2; linker N-8 via Heptanedioyl)	100 to 500	100 to 1000
CCCCCCCCCCCCCCCC(=O)N[C@@H](CCC(=O)NCCOCCOCC(=O)NCCOCCOCC(=O)NCCCC[C@@H]1NC(=O)[C@H](CCCCN)NC(=O)CCSCc2cccc(c2)CSC[C@@H](C(N)=O)NC(=O)[C@]2(C)CCCN2C(=O)[C@H](Cc2ccc(O)cc2)NC(=O)[C@H](Cc2cnc[nH]2)NC(=O)[C@H](CC(=O)O)NC(=O)[C@H](Cc2c[nH]c3ccc(F)cc23)NC(=O)[C@H](Cc2c[nH]c3ccc(F)cc23)NC1=O)C(=O)O [Compound 452] ([Mpa]KK([AEEA-AEEA-γGlu-Palmitoyl])[Trp(5-F)][Trp(5-F)]DHY[αMeP]C-NH2; linker 1-10 via mXylylene)	0.1 to 100	0.11 to 100
CCCCCCCCCCCCCCCC(=O)N[C@@H](CCC(=O)NCCOCCOCC(=O)NCCOCCOCC(=O)NCc1ccc(C[C@@H]2NC(=O)[C@@H](C)NC(=O)[C@H](CCCCN)NC(=O)CCSCc3cccc(c3)CSC[C@@H](C(N)=O)NC(=O)[C@]3(C)CCCN3C(=O)[C@H](Cc3ccc(O)cc3)NC(=O)[C@H](Cc3cnc[nH]3)NC(=O)[C@H](CC(=O)O)NC(=O)[C@H](Cc3c[nH]c4ccc(F)cc34)NC2=O)cc1)C(=O)O [Compound 453] ([Mpa]K[dA][Phe(4-CH2NH2)]([AEEA-AEEA-γGlu-Palmitoyl])[Trp(5-F)]DHY[αMeP]C-NH2; linker 1-10 via mXylylene)	0.1 to 100	0.11 to 100
CCCCCCCCCCCCCCCC(=O)N[C@@H](CCC(=O)NCCOCCOCC(=O)NCCOCCOCC(=O)NCc1cccc(C[C@@H]2NC(=O)[C@@H](C)NC(=O)[C@H](CCCCN)NC(=O)CCSCc3cccc(c3)CSC[C@@H](C(N)=O)NC(=O)[C@]3(C)CCCN3C(=O)[C@H](Cc3ccc(O)cc3)NC(=O)[C@H](Cc3cnc[nH]3)NC(=O)[C@H](CC(=O)O)NC(=O)[C@H](Cc3c[nH]c4ccc(F)cc34)NC2=O)c1)C(=O)O [Compound 454] ([Mpa]K[dA][Phe(3-CH2NH2)]([AEEA-AEEA-γGlu-Palmitoyl])[Trp(5-F)]DHY[αMeP]C-NH2; linker 1-10 via mXylylene)	100 to 500	0.11 to 100
NC(=O)[C@@H]1Cc2ccc(cc2)CNC(=O)CCCCCC(=O)NCC(=O)N[C@@H](Cc2c[nH]c3ccc(F)cc23)C(=O)N[C@@H](Cc2c[nH]c3ccc(F)cc23)C(=O)N[C@@H](CC(=O)O)C(=O)N[C@@H](Cc2cnc[nH]2)C(=O)N[C@@H](Cc2ccc(O)cc2)C(=O)N1 [Compound 455] (G[Trp(5-F)][Trp(5-F)]DHY[Phe(4-CH2NH2)]-NH2; linker N-7 via Heptanedioyl)	500 to 5000	1000 to 12100

— patent US11530244B2, “Cyclic polypeptides for PCSK9 inhibition” (priority 2018, dated 2022)
